How the values were obtained:
[1] = tested on: B. caballi; assay: Growth inhibitory fluorescence assay in vitro, B. caballi; assay type: cell-based, Babesia caballi; details: for Selective index HFF: EC50 HFF / IC50 B. caballi; for Selective index MDBK: EC50 MDBK / IC50 B. caballi; for Selective index NIH/3T3: EC50 NIH/3T3 / IC50 B. caballi
Protocol: Texas strain of B. bovis and Argentina strain of B. bigemina were grown using bovine red blood cells (RBCs, collected from cattle farm of Obihiro University of Agriculture and Veterinary Medicine and stored at 4°C) in medium 199 (M199; Sigma-Aldrich, Tokyo, Japan) supplemented with 40% bovine serum, while RPMI 1640 medium (Sigma-Aldrich, Tokyo, Japan) was used for B. divergens (German strain) cultivation. The United States Department of Agriculture (USDA) strain of T. equi was grown in equine RBCs (collected from horse farm of Obihiro University of Agriculture and Veterinary Medicine and stored at 4°C) in M199 supplemented with 40% equine serum, and hypoxanthine (MP Biomedicals, Santa Ana, CA, USA) at a final concentration of 13.6 μg/ml was used as a vital supplement, while GIT medium was used for B. caballi (USDA strain) cultivation. Sixty μg/ml of streptomycin, 0.15 μg/ml of amphotericin B, and 60 U/ml of penicillin G (Sigma-Aldrich, Tokyo, Japan) were added to all media to prevent fungal and bacterial contamination. All parasite cultures were maintained for a long time in a microaerophilic stationary-phase culture system.
The inhibition assay was conducted according to the previously described protocol. Briefly, different concentrations of CRY, DA, CF, and AQ were added in triplicate in 96-well plates with 1% parasitemia and 2.5% HCT for B. bovis and B. bigemina and 5% HCT for B. divergens, B. caballi, and T. equi. The plates were incubated in a humidified incubator with 5% CO2, 5% O2, and 90% N2 for 96 h without changing the media. After 96 h, 100 μl of lysis buffer containing 2 × SG1 was directly added to each well and the plates were then wrapped in aluminum foil for protection from direct light and incubated for 6 h at room temperature. Afterward, the fluorescence was measured using a fluorescence spectrophotometer (Fluoroskan Ascent, Thermo Fisher Scientific, USA) at 485 nm excitation and 518 nm emission wavelengths. The relative fluorescence value was set to percentages after subtracting the mean values of the negative control. The experiment was repeated thrice.
The IC50 values of CRY, DA, CF, and AQ were determined using the nonlinear regression curve fit in GraphPad Prism (GraphPad Software Inc., San Diego, CA, USA). Combination index (CI) values for the drug combination were calculated using CompuSyn software, and the degree of synergism was determined as the weighted average of CI values using a formula [(1 x IC50) + (2 x IC75) + (3 x IC90) + (4 x IC95)]/10 [30]. The differences in parasitemia and hematology profiles in the B. microti–infected mice were analyzed using an independent Student’s t-test and one-way ANOVA test using GraphPad Prism version 5.0 for Windows (GraphPad Software Inc., San Diego, CA, USA). A P-value < 0.05 was considered statistically significant.

[2] = tested on: mouse embryonic fibroblast (NIH/3T3) cell line; assay: cells; assay type: cell-based; details: for EC50: Mus musculus, NIH3T3, cell viability, NIH/3T3, 24 h, CCK-8
Protocol: (§1) Madin–Darby bovine kidney (MDBK) (ECACC), mouse embryonic fibroblast (NIH/3T3 ATCC CRL-1658) and Human foreskin fibroblast (HFF HFF-1 ATCC SCRC-1041) cell lines were recovered from -80°C stock and cultured continuously in our laboratory at 37°C in a humidified incubator with 5% CO2. In 75 cm^2 culture flasks, NIH/3T3 and HFF cell lines were maintained with Dulbecco’s Modified Eagle’s Medium (DMEM; Gibco, Grand Island, NY, USA), while the MDBK cell line was maintained with Minimum Essential Medium Eagle (MEM; Gibco). Ten percent fetal bovine serum, 1% glutamine, and 0.5% penicillin/streptomycin (Gibco) were added to all media and the cells were stained with 4, 6-diamidino-2-phenylindole dihydrochloride (DAPI; Sigma-Aldrich, St. Louis, MO, USA) to ensure that they were free from mycoplasma contamination. Afterward, the cells were washing twice with Dulbecco’s phosphate-buffered saline and TrypLE Express (Gibco) was used for cell detachment from the culture flask. Finally, Neubauer improved C-Chip (NanoEntek Inc., Seoul, Korea) was used for counting the viable cells after staining with 0.4% trypan blue solution.
(§2) The cytotoxicity assay was performed in accordance with the previously described protocol. Briefly, the assay was carried out using 96-well plates at 37 °C in a humidified incubator with 5% CO2, 100 μl of cells at a density of 5 x 10^4 cells/ml was seeded per well and allowed to attach to the plate for 24 h. Ten microliters of twofold drug dilutions was added to each well to a final concentration of 0.781 to 100 μM in triplicate and incubated for another 24 h. Ten μl of Cell Counting Kits-8 (CCK-8; Dojindo, Japan) was added to each well and incubated for another 3 h, and the absorbance was measured at 450 nm using a microplate reader.

[3] = tested on: human foreskin fibroblast (HFF) cell line; assay: cells; assay type: cell-based; details: for EC50: Homo sapiens, cell viability, HFF, 24 h, CCK-8
Protocol: as §1, §2

[4] = tested on: Madin–Darby bovine kidney (MDBK) cell line; assay: cells; assay type: cell-based; details: for EC50: Bos taurus, MDBK, 24 h, cell viability, CCK-8
Protocol: as §1, §2

[5] = tested on: equine RBCs / B. caballi; assay: Growth of B. caballi with CRY-treated horse RBCs; assay type: cell-based, Babesia caballi; details: equine RBCs pre-incubated with 1 and 10 μM CRY for 3 and 6 h, 4 days
Protocol: To investigate the hemolytic effect of CRY on host (bovine or equine) RBCs, bovine and equine RBCs were incubated with 1 and 10 μM of CRY for 3 and 6 h. The RBCs were washed thrice with phosphate-buffered saline (PBS) and mixed with B. divergens and B. caballi infected RBCs (iRBCs, recovered from −80 °C stock at our laboratory) harvested with a parasitemia of 8% and 3%, respectively and adjusted to 1% parasitemia with fresh RBCs. In a 24-well plate, 100 μl of iRBCs was added to 900 μl of complete medium and the parasite growth was monitored daily by microscopic examination of a Giemsa-stained blood smear for 4 days.

SMILES	Selective index HFF [1]	Selective index MDBK [1]	Selective index NIH/3T3 [1]	inhibition of cell line at 100 μM [2]	EC50 [2]	inhibition of cell line at 100 μM [3]	EC50 [3]	inhibition of cell line at 100 μM [4]	EC50 [4]	concentration at which in vitro growth was significantly inhibited ([1]; B. caballi, t-test P = 0.001)	IC50 ([1]; Babesia caballi, B. caballi in vitro culture, fluorescence assay, 96 h)	multiplication of B. caballi, CRY-treated RBCs versus normal RBCs [5]
O=C1C(O)=C([C@H]2CC[C@H](c3ccc(Cl)cc3)CC2)C(=O)c2ccccc21 [AQ, atovaquone]	˃ 980.4	˃ 980.4	˃ 980.4	did not show any inhibition	> 100 µM	did not show any inhibition	> 100 µM	did not show any inhibition	> 100 µM	–	–	–
Cn1c2c3ccccc3nc-2cc2ccccc21 [CRY, Cryptolepine hydrate]	˃ 166.7	144.45	158.82	–	95.3 ± 2.7 µM	did not show any inhibition	> 100 µM	–	86.7 ± 4.43 µM	0.03 µM	0.6 ± 0.00053 µM	did not significantly differ
